Measured values reported in ChEMBL document CHEMBL4819077, “Design, synthesis, and biological evaluation of diosgenin-indole derivatives as dual-functional agents for the treatment of Alzheimer's disease” (Eur J Med Chem, 2021).
Activity calls are given as the source filed them. The rule behind the calls is not given here.

What was measured:
[1] = test system: SH-SY5Y; assay: Neuroprotection against 6-OHDA-induced oxidative stress in human SH-SY5Y cells assessed as cell protection at 10 uM preincubated for 2 hr before 6-OHDA challenge and measured after 24 hrs by MTT assay; format: functional; settings: time 26 hrs
[2] = test system: SH-SY5Y; assay: Neuroprotection against H202-induced oxidative stress in human SH-SY5Y cells assessed as cell protection at 10 uM preincubated for 2 hr before H202 challenge and measured after 24 hrs by MTT assay; format: functional
[3] = test system: SH-SY5Y; assay: Cytotoxicity against human SH-SY5Y cells assessed as reduction in cell viability measured after 24 hrs by MTT assay; format: cell-based
[4] = test system: Mus musculus; assay: Neuroprotection against icv infused amyloid beta (1 to 42)-induced ICR mouse model of Alzheimer's disease assessed as rescue of pyknotic nucleus in hippocampal at to 2 mg/kg, po administered daily for 7 days by HE staining; format: functional, organism-based; settings: time 7.0 day
[5] = test system: Mus musculus; assay: Improvement in learning and spatial memory in icv infused amyloid beta (1 to 42)-induced ICR mouse model of Alzheimer's disease assessed as improved target quadrant exploration time at to 2 mg/kg, po administered daily for 7 days starting from 7 days post surgery by Morris water maze test; format: functional, organism-based; settings: time 7.0 day
[6] = test system: Mus musculus; assay: Neuroprotection against icv infused amyloid beta (1 to 42)-induced ICR mouse model of Alzheimer's disease assessed as rescue of decrease neuronal cells in hippocampal at to 2 mg/kg, po administered daily for 7 days by HE staining; format: functional, organism-based; settings: time 7.0 day
[7] = test system: SH-SY5Y; assay: Neuroprotection against Abeta-induced oxidative stress in human SH-SY5Y cells assessed as cell protection at 10 uM incubated for 2 hr before Abeta(1-42) challenge and measured after 24 hrs by MTT assay; format: functional; settings: time 26 hrs

In the case of `C[C@@H]1CC[C@@]2(OC1)O[C@H]1C[C@H]3[C@@H]4CCc5cc(OC(=O)NCCc6c[nH]c7ccc(Br)cc67)ccc5[C@H]4CC[C@]3(C)[C@H]1[C@@H]2C`, the Activity [1] is reported as 27.9%, the Activity [2] is reported as 29.6% and the Activity [3] is reported as “Non-Toxic”.

`COc1cc2c(cc1OC)C(=O)C(CC1CCN(Cc3ccccc3)CC1)C2` (configuration not stated) was tested, and the Activity [4] was “Active”, the Activity [5] was “Active” and the Activity [6] was “Active”.

With `C[C@@H]1CC[C@@]2(OC1)O[C@H]1C[C@H]3[C@@H]4CCc5cc(OC(=O)Cc6c[nH]c7ccccc67)ccc5[C@H]4CC[C@]3(C)[C@H]1[C@@H]2C` the Activity [1] was 61.1%, the Activity [2] was 18.4% and the Activity [3] was “Non-Toxic”. It also gave an Activity [7] of 20.6%.

With `C[C@@H]1CC[C@@]2(OC1)O[C@H]1C[C@H]3[C@@H]4CCc5cc(OC(=O)NCCc6c[nH]c7ccc(Cl)cc67)ccc5[C@H]4CC[C@]3(C)[C@H]1[C@@H]2C` the Activity [1] was 15.8%, the Activity [2] was 38.6% and the Activity [3] was “Non-Toxic”.

`C[C@@H]1CC[C@@]2(OC1)O[C@H]1C[C@H]3[C@@H]4CCc5cc(OC(=O)Cc6c[nH]c7ccc(Br)cc67)ccc5[C@H]4CC[C@]3(C)[C@H]1[C@@H]2C` was tested, and the Activity [1] was 4.2%, the Activity [2] was 15.8% and the Activity [3] was “Non-Toxic”.

`C[C@@H]1CC[C@@]2(OC1)O[C@H]1C[C@H]3[C@@H]4CCc5cc(OC(=O)NCCc6c[nH]c7ccccc67)ccc5[C@H]4CC[C@]3(C)[C@H]1[C@@H]2C` was tested, and the Activity [1] was 40.6%, the Activity [2] was 21.5% and the Activity [3] was “Non-Toxic”. The Activity [7] was 42.7%.

`COc1ccc2[nH]cc(CC(C)NC(=O)Oc3ccc4c(c3)CC[C@@H]3[C@@H]4CC[C@]4(C)[C@@H]5[C@H](C[C@@H]34)O[C@]3(CC[C@@H](C)CO3)[C@H]5C)c2c1` (some centres not stated) was tested, and the Activity [1] was 25.8%, the Activity [2] was 43.6% and the Activity [3] was “Non-Toxic”. For the same compound, the Activity [7] was 37.2%.

With `C[C@@H]1CC[C@@]2(OC1)O[C@H]1C[C@H]3[C@@H]4CCc5cc(OC(=O)Cc6c[nH]c7cc(Cl)ccc67)ccc5[C@H]4CC[C@]3(C)[C@H]1[C@@H]2C` the Activity [1] was 10.9%, the Activity [2] was 13.4% and the Activity [3] was “Non-Toxic”.

With `Cc1[nH]c2ccccc2c1CC(=O)Oc1ccc2c(c1)CC[C@@H]1[C@@H]2CC[C@]2(C)[C@@H]3[C@H](C[C@@H]12)O[C@]1(CC[C@@H](C)CO1)[C@H]3C` the Activity [1] was 30.5%, the Activity [2] was 22.7% and the Activity [3] was “Non-Toxic”.

With `Cc1ccc2[nH]cc(CC(=O)Oc3ccc4c(c3)CC[C@@H]3[C@@H]4CC[C@]4(C)[C@@H]5[C@H](C[C@@H]34)O[C@]3(CC[C@@H](C)CO3)[C@H]5C)c2c1` the Activity [1] was 18.8%, the Activity [2] was 14.6% and the Activity [3] was “Non-Toxic”.

With `C[C@@H]1CC[C@@]2(OC1)O[C@H]1C[C@H]3[C@@H]4CCc5cc(OC(=O)NCCc6c[nH]c7ccc(F)cc67)ccc5[C@H]4CC[C@]3(C)[C@H]1[C@@H]2C` the Activity [1] was 47.7%, the Activity [2] was 43.4% and the Activity [3] was “Non-Toxic”. The Activity [7] was 44.8%.

For `COc1ccc2[nH]cc(CC(=O)Oc3ccc4c(c3)CC[C@@H]3[C@@H]4CC[C@]4(C)[C@@H]5[C@H](C[C@@H]34)O[C@]3(CC[C@@H](C)CO3)[C@H]5C)c2c1`, the Activity [1] was 57.4%, the Activity [2] was 26.9% and the Activity [3] was “Non-Toxic”. The Activity [7] was 30.4%.

In the case of `COc1ccc2[nH]c(C)c(CC(=O)Oc3ccc4c(c3)CC[C@@H]3[C@@H]4CC[C@]4(C)[C@@H]5[C@H](C[C@@H]34)O[C@]3(CC[C@@H](C)CO3)[C@H]5C)c2c1`, the Activity [1] is reported as 42.3%, the Activity [2] is reported as 37.7% and the Activity [3] is reported as “Non-Toxic”. It also gave an Activity [7] of 26.9%.

`Cc1ccc2[nH]cc(CCNC(=O)Oc3ccc4c(c3)CC[C@@H]3[C@@H]4CC[C@]4(C)[C@@H]5[C@H](C[C@@H]34)O[C@]3(CC[C@@H](C)CO3)[C@H]5C)c2c1` was tested, and the Activity [1] was 27.7%, the Activity [2] was 49.1% and the Activity [3] was “Non-Toxic”. The Activity [7] was 34.2%.

With `COc1ccc2c(CCNC(=O)Oc3ccc4c(c3)CC[C@@H]3[C@@H]4CC[C@]4(C)[C@@H]5[C@H](C[C@@H]34)O[C@]3(CC[C@@H](C)CO3)[C@H]5C)c[nH]c2c1` the Activity [1] was 47.7%, the Activity [2] was 50% and the Activity [3] was “Non-Toxic”. For the same compound, the Activity [7] was 43.7%.

`C[C@@H]1CC[C@@]2(OC1)O[C@H]1C[C@H]3[C@@H]4CCc5cc(OC(=O)Cc6c[nH]c7ccc(F)cc67)ccc5[C@H]4CC[C@]3(C)[C@H]1[C@@H]2C` was tested, and the Activity [1] was 20.2%, the Activity [2] was 13.3% and the Activity [3] was “Non-Toxic”.

`COc1ccc2c(CC(=O)Oc3ccc4c(c3)CC[C@@H]3[C@@H]4CC[C@]4(C)[C@@H]5[C@H](C[C@@H]34)O[C@]3(CC[C@@H](C)CO3)[C@H]5C)c[nH]c2c1` was tested, and the Activity [3] was “Toxic”.

`Cc1[nH]c2ccccc2c1CCNC(=O)Oc1ccc2c(c1)CC[C@@H]1[C@@H]2CC[C@]2(C)[C@@H]3[C@H](C[C@@H]12)O[C@]1(CC[C@@H](C)CO1)[C@H]3C` was tested, and the Activity [1] was 34.4%, the Activity [2] was 31.1% and the Activity [3] was “Non-Toxic”.

With `C[C@@H]1CC[C@@]2(OC1)O[C@H]1C[C@H]3[C@@H]4CCc5cc(OC(=O)NCCc6c[nH]c7cc(F)ccc67)ccc5[C@H]4CC[C@]3(C)[C@H]1[C@@H]2C` the Activity [1] was 40.2%, the Activity [2] was 35.8% and the Activity [3] was “Non-Toxic”. It also gave an Activity [7] of 42.5%.

In the case of `C[C@@H]1CC[C@@]2(OC1)O[C@H]1C[C@H]3[C@@H]4CC=C5C[C@@H](O)CC[C@]5(C)[C@H]4CC[C@]3(C)[C@H]1[C@@H]2C` [DISOGENIN], the Activity [1] is reported as 14.2%, the Activity [2] is reported as 9.2% and the Activity [7] is reported as 7.4%.
